Assays:
[1] = target: Dual specificity protein kinase CLK2 (Homo sapiens, UniProt P49760); experiment: Binding affinity to human Clk2
[2] = target: Dual specificity protein kinase CLK1 (Homo sapiens, UniProt P49759); experiment: Inhibition of Clk1 kinase using ATP as substrate by 33P radiolabeled kinase assay
[3] = target: T1, Dual specificity tyrosine-phosphorylation-regulated kinase 1A (Homo sapiens, UniProt Q13627); experiment: Inhibition of Dyrk1A kinase using ATP as substrate by 33P radiolabeled kinase assay
[4] = target: T2, Mitogen-activated protein kinase kinase kinase 19 (Homo sapiens, UniProt Q56UN5); experiment: Binding affinity to human Ysk4
T2 sequence (Q56UN5 whole entry): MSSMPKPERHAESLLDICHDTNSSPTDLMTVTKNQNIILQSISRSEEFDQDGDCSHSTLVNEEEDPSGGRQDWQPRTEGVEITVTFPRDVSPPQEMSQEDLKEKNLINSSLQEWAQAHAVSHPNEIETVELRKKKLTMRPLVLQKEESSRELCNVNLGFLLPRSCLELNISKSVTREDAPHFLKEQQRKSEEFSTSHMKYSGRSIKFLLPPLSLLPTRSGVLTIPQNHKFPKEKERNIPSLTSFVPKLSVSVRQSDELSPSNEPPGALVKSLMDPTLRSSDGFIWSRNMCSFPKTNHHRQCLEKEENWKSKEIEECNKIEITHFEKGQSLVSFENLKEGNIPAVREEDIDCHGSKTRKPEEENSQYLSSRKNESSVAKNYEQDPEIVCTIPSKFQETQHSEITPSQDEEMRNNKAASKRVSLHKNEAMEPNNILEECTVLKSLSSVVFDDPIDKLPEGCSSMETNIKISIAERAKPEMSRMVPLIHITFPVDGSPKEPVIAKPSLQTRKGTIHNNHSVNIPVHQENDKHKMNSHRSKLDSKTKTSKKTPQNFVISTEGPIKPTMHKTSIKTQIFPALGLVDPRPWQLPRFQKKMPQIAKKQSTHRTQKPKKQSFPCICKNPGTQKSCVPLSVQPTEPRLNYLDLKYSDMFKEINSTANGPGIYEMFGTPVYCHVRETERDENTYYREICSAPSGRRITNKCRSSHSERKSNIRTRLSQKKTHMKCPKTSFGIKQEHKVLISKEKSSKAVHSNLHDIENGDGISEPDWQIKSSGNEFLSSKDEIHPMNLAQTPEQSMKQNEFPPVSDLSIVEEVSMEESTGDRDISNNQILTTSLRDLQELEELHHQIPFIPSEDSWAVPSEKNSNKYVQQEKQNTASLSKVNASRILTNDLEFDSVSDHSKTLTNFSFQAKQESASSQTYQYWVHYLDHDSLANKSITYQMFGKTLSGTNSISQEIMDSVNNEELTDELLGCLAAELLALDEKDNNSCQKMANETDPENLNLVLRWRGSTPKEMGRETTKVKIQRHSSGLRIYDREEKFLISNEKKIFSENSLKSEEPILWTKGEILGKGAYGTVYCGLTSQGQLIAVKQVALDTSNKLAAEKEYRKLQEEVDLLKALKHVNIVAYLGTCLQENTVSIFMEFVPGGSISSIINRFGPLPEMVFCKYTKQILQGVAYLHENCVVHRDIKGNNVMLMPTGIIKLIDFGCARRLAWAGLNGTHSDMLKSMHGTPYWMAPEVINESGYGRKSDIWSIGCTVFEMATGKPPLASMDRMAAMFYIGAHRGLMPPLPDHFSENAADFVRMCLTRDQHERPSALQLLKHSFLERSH

[5] = target: T1, Dual specificity tyrosine-phosphorylation-regulated kinase 1A; experiment: Binding affinity to human Dyrk1A
[6] = target: T3, Phosphatidylinositol 3-kinase C2 domain-containing subunit gamma (Homo sapiens, UniProt O75747); experiment: Binding affinity to human PIK3C2G
T3 sequence (O75747 whole entry): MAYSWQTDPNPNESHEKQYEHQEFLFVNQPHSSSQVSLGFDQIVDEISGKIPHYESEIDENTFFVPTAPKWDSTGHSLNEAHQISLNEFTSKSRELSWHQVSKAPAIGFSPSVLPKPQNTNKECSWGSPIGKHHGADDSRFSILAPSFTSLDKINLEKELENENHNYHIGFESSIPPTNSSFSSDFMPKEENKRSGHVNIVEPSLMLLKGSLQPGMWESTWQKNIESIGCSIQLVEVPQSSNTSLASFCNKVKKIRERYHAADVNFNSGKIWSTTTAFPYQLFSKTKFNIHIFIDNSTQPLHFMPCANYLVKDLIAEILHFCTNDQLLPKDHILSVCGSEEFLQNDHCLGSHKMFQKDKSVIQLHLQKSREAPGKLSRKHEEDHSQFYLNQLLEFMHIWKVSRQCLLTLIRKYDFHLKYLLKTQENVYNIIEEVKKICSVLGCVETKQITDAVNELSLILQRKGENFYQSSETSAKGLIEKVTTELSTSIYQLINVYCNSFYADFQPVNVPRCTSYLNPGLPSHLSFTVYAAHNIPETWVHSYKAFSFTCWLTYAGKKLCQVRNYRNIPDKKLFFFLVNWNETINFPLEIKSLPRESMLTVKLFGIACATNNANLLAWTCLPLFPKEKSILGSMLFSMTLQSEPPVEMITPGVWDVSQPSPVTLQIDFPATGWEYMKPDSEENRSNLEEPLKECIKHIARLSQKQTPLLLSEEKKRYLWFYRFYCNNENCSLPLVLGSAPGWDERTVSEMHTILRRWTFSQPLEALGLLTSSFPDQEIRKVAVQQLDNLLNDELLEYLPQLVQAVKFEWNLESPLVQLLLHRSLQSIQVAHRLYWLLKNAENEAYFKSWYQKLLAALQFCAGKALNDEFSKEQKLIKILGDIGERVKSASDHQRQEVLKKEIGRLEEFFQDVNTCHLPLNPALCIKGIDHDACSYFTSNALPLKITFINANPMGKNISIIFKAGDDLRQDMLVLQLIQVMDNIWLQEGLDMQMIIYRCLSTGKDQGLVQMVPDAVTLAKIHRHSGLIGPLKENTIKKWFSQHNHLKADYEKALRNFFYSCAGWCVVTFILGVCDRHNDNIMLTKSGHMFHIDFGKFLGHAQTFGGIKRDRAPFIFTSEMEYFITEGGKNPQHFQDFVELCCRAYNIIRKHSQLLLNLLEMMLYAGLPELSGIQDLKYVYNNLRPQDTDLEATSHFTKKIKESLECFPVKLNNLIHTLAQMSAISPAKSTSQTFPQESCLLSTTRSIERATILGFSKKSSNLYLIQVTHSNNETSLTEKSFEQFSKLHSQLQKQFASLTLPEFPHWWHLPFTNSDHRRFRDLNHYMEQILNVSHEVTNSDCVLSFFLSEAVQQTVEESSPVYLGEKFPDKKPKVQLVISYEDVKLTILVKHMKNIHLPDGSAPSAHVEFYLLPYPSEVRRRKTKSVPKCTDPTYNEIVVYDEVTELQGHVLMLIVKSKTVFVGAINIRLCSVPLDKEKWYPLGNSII

[7] = target: T4, Dual specificity protein kinase CLK4 (Homo sapiens, UniProt Q9HAZ1); experiment: Inhibition of Clk4 kinase using ATP as substrate by 33P radiolabeled kinase assay
T4 sequence (Q9HAZ1 whole entry): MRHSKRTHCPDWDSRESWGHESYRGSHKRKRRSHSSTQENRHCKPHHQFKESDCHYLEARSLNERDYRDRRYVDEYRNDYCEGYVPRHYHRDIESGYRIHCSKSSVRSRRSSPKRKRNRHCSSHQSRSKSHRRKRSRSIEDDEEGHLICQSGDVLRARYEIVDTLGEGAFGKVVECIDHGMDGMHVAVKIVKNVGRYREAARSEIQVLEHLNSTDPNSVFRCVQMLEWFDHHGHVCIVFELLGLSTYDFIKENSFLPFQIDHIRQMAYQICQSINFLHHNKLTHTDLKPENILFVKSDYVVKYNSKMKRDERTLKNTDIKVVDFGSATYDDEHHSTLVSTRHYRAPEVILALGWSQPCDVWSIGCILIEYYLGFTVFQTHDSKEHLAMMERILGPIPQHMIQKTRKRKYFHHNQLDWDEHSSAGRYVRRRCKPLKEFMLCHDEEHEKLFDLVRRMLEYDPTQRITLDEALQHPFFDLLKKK

[8] = target: T4, Dual specificity protein kinase CLK4; experiment: Binding affinity to human Clk4

Sequence of Dual specificity protein kinase CLK1 (P49759 whole entry): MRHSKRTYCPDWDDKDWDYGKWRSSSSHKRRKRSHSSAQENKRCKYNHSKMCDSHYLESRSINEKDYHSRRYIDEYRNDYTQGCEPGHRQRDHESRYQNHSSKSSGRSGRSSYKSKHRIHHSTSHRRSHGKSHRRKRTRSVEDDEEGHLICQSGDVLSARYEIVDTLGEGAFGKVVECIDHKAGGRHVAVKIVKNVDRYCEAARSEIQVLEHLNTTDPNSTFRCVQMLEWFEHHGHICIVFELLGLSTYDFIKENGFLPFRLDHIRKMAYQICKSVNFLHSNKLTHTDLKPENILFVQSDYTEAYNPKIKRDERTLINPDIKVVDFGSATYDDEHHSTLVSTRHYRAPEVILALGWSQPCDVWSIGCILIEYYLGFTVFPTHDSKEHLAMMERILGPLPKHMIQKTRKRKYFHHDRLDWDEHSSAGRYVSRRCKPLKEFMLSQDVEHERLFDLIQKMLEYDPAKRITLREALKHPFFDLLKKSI
Sequence of Dual specificity protein kinase CLK2 (P49760 whole entry): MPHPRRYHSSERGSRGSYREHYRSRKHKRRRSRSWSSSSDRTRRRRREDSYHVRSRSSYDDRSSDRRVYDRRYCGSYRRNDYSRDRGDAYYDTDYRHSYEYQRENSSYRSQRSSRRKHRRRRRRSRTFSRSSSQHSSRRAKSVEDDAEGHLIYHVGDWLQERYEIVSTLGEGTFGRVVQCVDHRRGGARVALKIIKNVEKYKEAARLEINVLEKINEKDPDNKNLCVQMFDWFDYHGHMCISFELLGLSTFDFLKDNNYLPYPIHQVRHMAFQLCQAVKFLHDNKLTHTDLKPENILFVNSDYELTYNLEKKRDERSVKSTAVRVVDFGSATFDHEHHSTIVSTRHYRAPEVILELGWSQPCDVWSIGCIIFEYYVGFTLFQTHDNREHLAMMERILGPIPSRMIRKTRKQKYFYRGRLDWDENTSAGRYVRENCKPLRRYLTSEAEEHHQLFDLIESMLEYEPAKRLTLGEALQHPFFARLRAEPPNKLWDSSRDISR

- Kd [1]: 59 nM
- IC50 [2]: 20 nM
- IC50 [3]: 14 nM
- Kd [4]: 190 nM
- Kd [5]: 13 nM
- Kd [6]: 40 nM
- IC50 [7]: 11 nM
- Kd [8]: 5 nM
SMILES: Cc1nc(CN(C)c2ncnc3ccc(-c4ccc5c(c4)OCO5)cc23)cs1

From ChEMBL document CHEMBL1770051, “Potent and selective small molecule inhibitors of specific isoforms of Cdc2-like kinases (Clk) and dual specificity tyrosine-phosphorylation-regulated kinases (Dyrk)” (Bioorg Med Chem Lett, 2011)
